Data taken from publication doi:10.1101/572578v1 (biorxiv, 2019).
pKd: −log10 of the molar value.

Key:
Experiment in all cases: intrinsic fluorescence quenching titration
Type in all cases: binding
[1] = molecular target: COMMD1 (Homo sapiens, UniProt Q8N668)
[2] = molecular target: COMMD1 (Homo sapiens, UniProt Q8N668, T174M)
[3] = molecular target: COMMD1 (Homo sapiens, UniProt Q8N668, K167E/K173E)
Chain of COMMD1 (Homo sapiens, UniProt Q8N668, K167E/K173E) (Q8N668 whole entry K167E/K173E): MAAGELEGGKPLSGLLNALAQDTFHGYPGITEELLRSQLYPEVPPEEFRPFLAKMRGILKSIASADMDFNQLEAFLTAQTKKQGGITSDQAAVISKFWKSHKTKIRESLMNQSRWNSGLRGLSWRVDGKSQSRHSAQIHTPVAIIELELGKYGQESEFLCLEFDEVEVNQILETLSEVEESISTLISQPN

Chain of COMMD1 (Homo sapiens, UniProt Q8N668, T174M) (Q8N668 whole entry T174M): as the sequence (Q8N668 whole entry K167E/K173E) above, with E167K, E173K, T174M counted along it
Chain of COMMD1 (Homo sapiens, UniProt Q8N668) (Q8N668 whole entry): as the sequence (Q8N668 whole entry K167E/K173E) above, with E167K, E173K counted along it

pKd [1]: 7.39
pKd [2]: 7.20
pKd [3]: 6.55
Compound: CCCCCC(=O)OC[C@H](COP(=O)(O)O[C@@H]1[C@H](O)[C@H](O)[C@@H](OP(=O)(O)O)[C@H](OP(=O)(O)O)[C@H]1O)OC(=O)CCCCC [PtdIns(4,5)P2]
